Measured values from patent US6962942B2, “Azacycloalkanone serine protease inhibitors” (3-Dimensional Pharmaceuticals, Inc., priority 1999, dated 2005).
pKi: −log10 of the molar value.

Columns and labels:
[1] = target: T1, Human α-thrombin (Homo sapiens, UniProt P00734); assay: In vitro inhibition of purified thrombin (p-nitroanilide substrate hydrolysis, Ki determination); assay type: biochemical; conditions: substrate N-succinyl-Ala-Ala-Pro-Arg-p-nitroanilide, pH 7.5, 37° C.; read-out: Ki against thrombin
T1 construct: Human α-thrombin, and human factor Xa were obtained from Enzyme Research Laboratories; purchased Enzyme Research Laboratories (South Bend, Indiana)
Description: (§1) Reagents: All buffer salts were obtained from Sigma Chemical Company (St. Louis, Mo.), and were of the highest purity available. The enzyme substrates, N-benzoyl-Phe-Val-Arg-p-nitroanilide (Sigma B7632), N-benzoyl-Ile-Glu-Gly-Arg-p-nitroanilide hydrochloride (Sigma B2291), N-p-Tosyl-Gly-Pro-Lys-p-nitroanilide (Sigma T6140), N-succinyl-Ala-Ala-Pro-Phe-p-nitroanilide (Sigma S7388) and N-CBZ-Val-Gly-Arg-p-nitroanilide (Sigma C7271) were obtained from Sigma. N-succinyl-Ala-Ala-Pro-Arg-p-nitroanilide (BACHEM L-1720) and N-succinyl-Ala-Ala-Pro-Val-p-nitroanilide (BACHEM L-1770) were obtained from BACHEM (King of Prussia, Pa.).
(§2) Human α-thrombin, and human factor Xa were obtained from Enzyme Research Laboratories (South Bend, Indiana). Bovine α-chymotrypsin (Sigma C4129), bovine trypsin (Sigma T8642) and human kidney cell urokinase (Sigma U5004) were obtained from Sigma. Human leukocyte elastase was obtained from Elastin Products (Pacific, Mo.).
(§3) Ki Determinations: All assays are based on the ability of the test compound to inhibit the enzyme catalyzed hydrolysis of a peptide p-nitroanilide substrate. […] In general, substrate concentrations are lower than the experimentally determined value for Km. […]
(§4) In a typical Ki determination, into each well of a 96 well plate is pipetted […] of substrate solution, […] of test compound solution, and the plate allowed to thermally equilibrate at 37° C. in a Molecular Devices plate reader for >15 minutes. Reactions were initiated by the addition of a […] aliquot of enzyme and the absorbance increase at 405 nm is recorded for 15 minutes. […] The ratio of the velocity (rate of change in absorbance as a function of time) for a sample containing no test compound is divided by the velocity of a sample containing test compound, and is plotted as a function of test compound concentration. The data are fit to a linear regression, and the value of the slope of the line calculated. The inverse of the slope is the experimentally determined Ki value. […]

[2] = target: T2, human factor Xa (Homo sapiens, UniProt P00742); assay: In vitro inhibition of purified factor Xa (p-nitroanilide substrate hydrolysis, Ki determination); assay type: biochemical; conditions: for pKi: substrate N-benzoyl-Ile-Glu-Gly-Arg-p-nitroanilide hydrochloride, pH 7.5, 37° C., read-out: Ki against factor Xa
T2 construct: purchased Enzyme Research Laboratories (South Bend, Indiana)
Description: as §1, §2, §3, §4

T2 sequence (P00742 235-488 limits assumed): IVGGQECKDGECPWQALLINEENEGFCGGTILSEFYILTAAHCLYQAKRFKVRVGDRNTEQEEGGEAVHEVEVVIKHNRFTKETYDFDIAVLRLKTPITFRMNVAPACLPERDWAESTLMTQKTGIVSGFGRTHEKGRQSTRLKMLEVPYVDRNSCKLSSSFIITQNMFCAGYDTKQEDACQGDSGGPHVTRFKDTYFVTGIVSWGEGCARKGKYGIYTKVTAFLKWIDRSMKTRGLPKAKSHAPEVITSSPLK
T2 sequence (P00742 41-179 partner limits assumed): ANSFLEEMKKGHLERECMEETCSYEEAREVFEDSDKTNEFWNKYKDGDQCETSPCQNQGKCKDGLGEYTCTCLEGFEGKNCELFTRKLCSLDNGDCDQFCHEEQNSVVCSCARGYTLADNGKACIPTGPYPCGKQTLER

pKi [1] | pKi [2] | activity against factor Xa ([2]; at a concentration of 10 μM) | Compound
5.92 | 5.68 | – | COc1ccc(S(=O)(=O)N[C@H]2CCCN(CC(=O)NCCONC(=N)N)C2=O)cc1 [Example 11]
5.19 | 6.44 | – | N=C(N)NOCCNC(=O)CN1CCC[C@H](NS(=O)(=O)c2ccc(-c3ccc4ccccc4c3)cc2)C1=O [Example 42]
6.15 | – | no activity | N=C(N)NOCCNC(=O)CN1CCC[C@H](NS(=O)(=O)Cc2ccccc2)C1=O [Example 2]
